Earlier results in US7973084B2, “Molecular transporters based on alditol or inositol and processes for the preparation thereof” (Postech Academy-Industrial Foundation, priority 2005, dated 2011).

Test system: Jurkat cells

Substance | uptake by Jurkat cells (determined using FACS) | effectiveness in the transportation across a biological membrane relative to Tat protein (49-57 a.a.) (compared with Tat protein (49-57 a.a.))
D-arginine nonamer | much more effective | 
L-arginine nonamer |  | 20 times
